Article PMC8389922, “First-in-Class Cyclic Temporin L Analogue: Design, Synthesis, and Antimicrobial Assessment” (Journal of Medicinal Chemistry, 2021)
In brackets after ≈: the same amount, converted by molar mass. Bridge positions count the residues as written; N and C are the ends. Square brackets hold non-standard residues; d marks the D form. Peptide text beside a SMILES is read from it.

Legend:
[1] = test system: S. epidermidis ATCC 12228; assay type: cell-based, Staphylococcus epidermidis
Method in brief: (§1)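 MICs were determined by broth microdilution, with bacteria at a final 1 × 10^6 CFU/mL and peptides tested from 100 to 0.78 μM.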

[2] = Thioflavin T aggregation in LUVs; assay type: physicochemical; conditions: tested 5–50 μM, 25 °C, pH 7.4, ThT emission 482 nm; for peptide concentration at which oligomerization (ThT fluorescence plateau) was observed: DOPE/DOPG/CL (63/23/12) LUVs; for peptide concentration at which aggregation (increase of ThT fluorescence) was observed: DOPG/CL (58/42) LUVs
Excerpt: We used large unilamellar vesicles (LUVs) made of phosphatidylethanolamine (DOPE), phosphatidylglycerol (DOPG), and cardiolipin (CL) (63/23/12) to mimic lipid composition of the cytoplasmic membrane of Gram-negative bacteria. Gram-positive membranes were otherwise mimicked using LUVs made of DOPG and CL (58/42).
TEXT PRINTED IN THE PICTURE: (c) 9: DOPG/CL mimicking Gram-positive membrane: θ222/ θ208: 1.7 | (c) 12: DOPG/CL mimicking Gram-positive membrane: θ222/ θ208: 2.6 | (c) 17: DOPG/CL mimicking Gram-positive membrane: θ222/ θ208: 1.9 | (f) 9: DOPE/DOPG/CL mimicking Gram-negative membrane: θ222/ θ208: 1.8 | (f) 12: DOPE/DOPG/CL mimicking Gram-negative membrane: θ222/ θ208: 2.1 | (f) 17: DOPE/DOPG/CL mimicking Gram-negative membrane: θ222/ θ208: 1.7
The fluorescent dye Thioflavin T (ThT) is widely used to quantify peptide aggregation in the presence of bacterial membranes represented by LUVs (Gram-positive, DOPG/CL, 58/42 ratio in moles; Gram-negative DOPG/DOPE/CL, 63/23/12 ratio in moles). Once lipid films were prepared as described above, they were hydrated with 100 mM NaCl, 10 mM Tris-HCl, […] ThT buffer, pH = 7.4, vortexed for 1 h, freeze-thawed six times, and extruded 10 times through polycarbonate membranes with 0.1 μm diameter pores.[80] Peptides were dissolved in water to have a stock solution of 2 mM. Peptide aggregation was quantified by treating LUVs with peptide concentrations of 5, 10, 15, 20, 30, and 50 μM. Fluorescence was measured before and after the addition of peptide at 25 °C using a Varian Cary Eclipse fluorescence spectrometer. ThT fluorescence emission was measured at 482 nm (slit width, 5 nm) after excitation at 450 nm (slit width, 10 nm). In the presence of aggregated peptides, ThT combines with them giving an excitation maximum at 450 nm and an increased emission at 482 nm.[62] Peptide aggregation was calculated as %A = (Ff – F0)/(Fmax – F0) × 100, where Ff indicates the value of fluorescence after peptide addition, F0 is the initial fluorescence in the absence of peptide, and Fmax is the fluorescence maximum obtained immediately after peptide addition.

[3] = test system: A. baumannii ATCC 19606; assay type: cell-based, Acinetobacter baumannii
Method in brief: as §1

[4] = test system: S. aureus ATCC 43300, a methicillin-resistant strain (MRSA); assay type: cell-based, Staphylococcus aureus
Procedure: Thus, 12 was further tested against S. aureus ATCC 43300, a methicillin-resistant strain (MRSA), and compared with the linear precursor 9. […] No growth was observed after 24 h. Peptide 9 was bactericidal as well, by killing MRSA within 10 min, but at a higher concentration (25 μM).
The bacterial strains used in the antimicrobial assays were the Gram-negative E. coli ATCC 25922, P. aeruginosa ATCC 27853, A. baumannii ATCC 19606, the Gram-positive S. aureus ATCC 25923, S. epidermidis ATCC 12228, and B. megaterium Bm11. Methicillin-resistant S. aureus (MRSA) ATCC 43300 was obtained from Culture Collection Center of School of Basic Medical Sciences of Lanzhou University (China).
The determination of MICs was conducted as previously reported.[61] Aliquots of 50 μL of bacterial culture appropriately diluted were added to each well of a 96-well plate to reach a final cell density of 1 × 10^6 CFU/mL and a final peptide concentration ranging from 100 to 0.78 μM (final volume 100 μL).

[5] = 90% fresh human serum (male AB plasma), 37 ± 1 °C, peptide 0.2 mM, MeCN precipitation, RP-UHPLC peak area at 220 nm, triplicate
Procedure: Peptides were incubated with 90% fresh human serum at 37 ± 1 °C within 12 h.[69] The percentage of intact peptide was monitored by calculating the peak area of the chromatogram from RP-HPLC analysis.
The peptide was incubated in a 1.5 mL eppendorf tube with human serum at a final concentration of 0.2 mM, and the mixture was incubated at 37 ± 1 °C for different periods (0.25, 0.75, 1.5, 2, 3, 4, 6, 7, 8, and 12 h). After the incubation period, an aliquot of reaction solution was taken and added MeCN (double volume respect to the aliquot) for the precipitation of serum proteins present in human serum. The produced cloudy solution was cooled (4 °C) for 15 min and then centrifuged at 13 000 rpm for 10 min to remove the serum protein as pellet. Then, the supernatant was analyzed by RP-UHPLC using a linear elution gradient from 10 to 90% MeCN (0.1% TFA) in water (0.1% TFA) over 20 min. A flow rate of 1 mL/min was employed, and the absorbance of the eluting peaks was detected at 220 nm. The proteolytic stability assay was repeated in triplicate.

[6] = test system: S. aureus ATCC 25923; assay type: cell-based, Staphylococcus aureus
Method in brief: as §1

[7] = test system: P. aeruginosa ATCC 27853; assay type: cell-based, Pseudomonas aeruginosa
Method in brief: as §1

CC[C@H](C)[C@H](NC(=O)[C@H](CCCNC(=N)N)NC(=O)[C@@H]1CCC(=O)NCCCC[C@H](NC(=O)[C@H](Cc2ccccc2)NC(=O)[C@H](Cc2c[nH]c3ccccc23)NC(=O)[C@@H]2CCCN2C(=O)[C@@H](NC(=O)[C@@H](N)Cc2ccccc2)C(C)C)C(=O)N[C@@H](CCCCN)C(=O)N[C@@H](Cc2ccccc2)C(=O)N[C@H](CC(C)C)C(=O)N1)C(=O)N[C@@H](CC(C)C)C(N)=O [compound 12] (H-FVPWFKKF[dL]ERIL-NH2; lactam 6-10)
MIC S. epidermidis ATCC 12228 [1]: 3.12 µM (≈ 5.32 µg/mL) | peptide concentration at which oligomerization (ThT fluorescence plateau) was observed [2]: 10 µM | peptide concentration at which aggregation (increase of ThT fluorescence) was observed [2]: 30 µM | MIC A. baumannii ATCC 19606 [3]: 3.12 µM (≈ 5.32 µg/mL) | MIC S. aureus ATCC 43300 (MRSA) [4]: 12.5 µM (≈ 21.3 µg/mL) | time to complete degradation in human serum [5]: 12 h | MIC S. aureus ATCC 25923 [6]: 3.12 µM (≈ 5.32 µg/mL) | MIC P. aeruginosa ATCC 27853 [7]: 100 µM (≈ 170 µg/mL)

CC[C@H](C)[C@H](NC(=O)[C@H](CCCNC(=N)N)NC(=O)[C@@H]1CCCCn2cc(nn2)C[C@H](NC(=O)[C@H](Cc2ccccc2)NC(=O)[C@H](Cc2c[nH]c3ccccc23)NC(=O)[C@@H]2CCCN2C(=O)[C@@H](NC(=O)[C@@H](N)Cc2ccccc2)C(C)C)C(=O)N[C@@H](CCCCN)C(=O)N[C@@H](Cc2ccccc2)C(=O)NC(CC(C)C)C(=O)N1)C(=O)N[C@@H](CC(C)C)C(N)=O (stereo in doubt) [compound 17]
MIC S. epidermidis ATCC 12228 [1]: 1.56 µM (≈ 2.67 µg/mL) | peptide concentration at which oligomerization (ThT fluorescence plateau) was observed [2]: 10 µM | peptide concentration at which aggregation (increase of ThT fluorescence) was observed [2]: 50 µM | MIC A. baumannii ATCC 19606 [3]: 25 µM (≈ 42.9 µg/mL) | MIC S. aureus ATCC 25923 [6]: 3.12 µM (≈ 5.35 µg/mL) | MIC P. aeruginosa ATCC 27853 [7]: >100 µM
